# Results as given in ChEMBL document CHEMBL1671699, “Steady-state intrapulmonary pharmacokinetics and pharmacodynamics of posaconazole in lung transplant recipients” (Antimicrob Agents Chemother, 2010).
# Tests used:
# [1] = Ratio of Cmax in lung transplant recipient alveolar cell after 12 hrs to MIC90 for Aspergillus spp.; assay type: functional, Pneumocyte
# [2] = Ratio of Cmax in lung transplant recipient plasma after 12 hrs to MIC90 for Aspergillus spp.; assay type: functional
# [3] = AUC (0 to 24 hrs) in lung transplant recipient alveolar cell at 400 mg, po every 12 hrs by LC/MS analysis; assay type: ADME, organism-based, Pneumocyte; parameters: time < 24 hr, dose 400 mg, route oral; settings: human, in vivo
# [4] = Ratio of drug level in lung transplant human recipient alveolar cell to plasma at 400 mg, po every 12 hrs after 5 hrs by LS/MS analysis; assay type: ADME, organism-based, Pneumocyte; settings: other tissue
# [5] = Ratio of drug level in lung transplant human recipient epithelial lining fluid to plasma at 400 mg, po every 12 hrs after 12 hrs by LS/MS analysis; assay type: ADME, organism-based
# [6] = Cmin in lung transplant recipient alveolar cell at 400 mg, po every 12 hrs after 12 hrs by LC/MS analysis; assay type: ADME, organism-based, Pneumocyte; settings: human, alveolar cells, read-out: Cmin
# [7] = Ratio of drug level in lung transplant human recipient alveolar cell to plasma at 400 mg, po every 12 hrs after 24 hrs by LS/MS analysis; assay type: ADME, organism-based, Pneumocyte; settings: other tissue
# [8] = Drug level in lung transplant recipient alveolar cell at 400 mg, po every 12 hrs after 12 hrs by LS/MS analysis; assay type: ADME, organism-based, Pneumocyte; settings: human, alveolar cells, read-out: Drug uptake
# [9] = AUC (0 to 24 hrs) in lung transplant recipient epithelial lining fluid at 400 mg, po every 12 hrs by LC/MS analysis; assay type: ADME, organism-based; parameters: time < 24 hr, dose 400 mg, route oral; settings: human, in vivo
# [10] = Tmax in lung transplant recipient plasma at 400 mg, po every 12 hrs after 12 hrs by LC/MS analysis; assay type: ADME, organism-based; settings: human
# [11] = Drug level in lung transplant recipient plasma at 400 mg, po every 12 hrs after 3 hrs by LS/MS analysis; assay type: ADME, organism-based; settings: human, read-out: Drug uptake
# [12] = AUC (0 to 12 hrs) in lung transplant recipient epithelial lining fluid at 400 mg, po every 12 hrs by LC/MS analysis; assay type: ADME, organism-based; parameters: time < 12 hr, dose 400 mg, route oral; settings: human, in vivo
# [13] = Drug level in lung transplant recipient alveolar cell at 400 mg, po every 12 hrs after 3 hrs by LS/MS analysis; assay type: ADME, organism-based, Pneumocyte; settings: human, alveolar cells, read-out: Drug uptake
# [14] = Ratio of drug level in lung transplant human recipient epithelial lining fluid to plasma at 400 mg, po every 12 hrs after 8 hrs by LS/MS analysis; assay type: ADME, organism-based
# [15] = Ratio of Cmax in lung transplant recipient epithelial lining fluid after 12 hrs to MIC90 for Aspergillus spp.; assay type: functional
# [16] = Drug level in lung transplant recipient plasma at 400 mg, po every 12 hrs after 12 hrs by LS/MS analysis; assay type: ADME, organism-based; settings: human, read-out: Drug uptake
# [17] = Ratio of fAUC (0 to 12 hrs) in lung transplant recipient plasma to MIC90 for Aspergillus spp.; assay type: functional
# [18] = Drug level in lung transplant recipient plasma at 400 mg, po every 12 hrs after 5 hrs by LS/MS analysis; assay type: ADME, organism-based; settings: human, read-out: Drug uptake
# [19] = Ratio of drug level in lung transplant human recipient alveolar cell to plasma at 400 mg, po every 12 hrs after 12 hrs by LS/MS analysis; assay type: ADME, organism-based, Pneumocyte; settings: other tissue
# [20] = Ratio of drug level in lung transplant human recipient epithelial lining fluid to plasma at 400 mg, po every 12 hrs after 24 hrs by LS/MS analysis; assay type: ADME, organism-based
# [21] = Cmax in lung transplant recipient plasma at 400 mg, po every 12 hrs after 12 hrs by LC/MS analysis; assay type: ADME, organism-based; parameters: dose 400 mg, route oral; settings: human
# [22] = Drug level in lung transplant recipient alveolar cell at 400 mg, po every 12 hrs after 24 hrs by LS/MS analysis; assay type: ADME, organism-based, Pneumocyte; settings: human, alveolar cells, read-out: Drug uptake
# [23] = Ratio of AUC (0 to 24 hrs) in lung transplant recipient alveolar cell to MIC90 for Aspergillus spp.; assay type: functional, Pneumocyte
# [24] = Ratio of drug level in lung transplant human recipient epithelial lining fluid to plasma at 400 mg, po every 12 hrs after 5 hrs by LS/MS analysis; assay type: ADME, organism-based
# [25] = T>MIC90 for Aspergillus spp. infected lung transplant recipient epithelial lining fluid at 400 mg, po every 12 hrs by LS/MS analysis; assay type: functional
# [26] = Cmax in lung transplant recipient alveolar cell at 400 mg, po every 12 hrs after 12 hrs by LC/MS analysis; assay type: ADME, organism-based, Pneumocyte; parameters: dose 400 mg, route oral; settings: human, alveolar cells
# [27] = Drug level in lung transplant recipient epithelial lining fluid at 400 mg, po every 12 hrs after 8 hrs by LS/MS analysis; assay type: ADME, organism-based; settings: human, read-out: Drug uptake
# [28] = Tmax in lung transplant recipient epithelial lining fluid at 400 mg, po every 12 hrs after 12 hrs by LC/MS analysis; assay type: ADME, organism-based; settings: human
# [29] = Ratio of drug level in lung transplant human recipient epithelial lining fluid to plasma at 400 mg, po every 12 hrs after 3 hrs by LS/MS analysis; assay type: ADME, organism-based
# [30] = Drug level in lung transplant recipient plasma at 400 mg, po every 12 hrs after 8 hrs by LS/MS analysis; assay type: ADME, organism-based; settings: human, read-out: Drug uptake
# [31] = Ratio of AUC (0 to 24 hrs) in lung transplant recipient plasma to MIC90 for Aspergillus spp.; assay type: functional
# [32] = Drug level in lung transplant recipient epithelial lining fluid at 400 mg, po every 12 hrs after 12 hrs by LS/MS analysis; assay type: ADME, organism-based; settings: human, read-out: Drug uptake
# [33] = Protein binding in human plasma at 400 mg, po BID by LS/MS analysis; assay type: ADME, organism-based; settings: read-out: PPB
# [34] = Cmax in lung transplant recipient epithelial lining fluid at 400 mg, po every 12 hrs after 12 hrs by LC/MS analysis; assay type: ADME, organism-based; parameters: dose 400 mg, route oral; settings: human
# [35] = Drug level in lung transplant recipient epithelial lining fluid at 400 mg, po every 12 hrs after 5 hrs by LS/MS analysis; assay type: ADME, organism-based; settings: human, read-out: Drug uptake
# [36] = Ratio of drug level in lung transplant human recipient alveolar cell to plasma at 400 mg, po every 12 hrs after 8 hrs by LS/MS analysis; assay type: ADME, organism-based, Pneumocyte; settings: other tissue
# [37] = AUC (0 to 12 hrs) in lung transplant recipient alveolar cell at 400 mg, po every 12 hrs by LC/MS analysis; assay type: ADME, organism-based, Pneumocyte; parameters: time < 12 hr, dose 400 mg, route oral; settings: human, in vivo
# [38] = Ratio of fAUC (0 to 24 hrs) in lung transplant recipient plasma to MIC90 for Aspergillus spp.; assay type: functional
# [39] = test system: Plasma; assay: AUC (0 to 24 hrs) in lung transplant recipient plasma at 400 mg, po every 12 hrs by LC/MS analysis; assay type: ADME, organism-based; parameters: dose 400 mg, time < 24 hr, route oral; settings: human, in vivo
# [40] = Tmax in lung transplant recipient alveolar cell at 400 mg, po every 12 hrs after 12 hrs by LC/MS analysis; assay type: ADME, organism-based, Pneumocyte; settings: human, alveolar cells
# [41] = Ratio of drug level in lung transplant human recipient alveolar cell to plasma at 400 mg, po every 12 hrs after 3 hrs by LS/MS analysis; assay type: ADME, organism-based, Pneumocyte; settings: other tissue
# [42] = Ratio of AUC (0 to 12 hrs) in lung transplant recipient alveolar cell to MIC90 for Aspergillus spp.; assay type: functional, Pneumocyte
# [43] = Drug level in lung transplant recipient alveolar cell at 400 mg, po every 12 hrs after 8 hrs by LS/MS analysis; assay type: ADME, organism-based, Pneumocyte; settings: human, alveolar cells, read-out: Drug uptake
# [44] = T>MIC90 for Aspergillus spp. infected lung transplant recipient plasma at 400 mg, po every 12 hrs by LS/MS analysis; assay type: functional
# [45] = Drug level in lung transplant recipient alveolar cell at 400 mg, po every 12 hrs after 5 hrs by LS/MS analysis; assay type: ADME, organism-based, Pneumocyte; settings: human, alveolar cells, read-out: Drug uptake
# [46] = Drug level in lung transplant recipient epithelial lining fluid at 400 mg, po every 12 hrs after 3 hrs by LS/MS analysis; assay type: ADME, organism-based; settings: human, read-out: Drug uptake
# [47] = Drug level in lung transplant recipient plasma at 400 mg, po every 12 hrs after 24 hrs by LS/MS analysis; assay type: ADME, organism-based; settings: human, read-out: Drug uptake
# [48] = Ratio of AUC (0 to 24 hrs) in lung transplant recipient epithelial lining fluid to MIC90 for Aspergillus spp.; assay type: functional
# [49] = Ratio of AUC (0 to 12 hrs) in lung transplant recipient epithelial lining fluid to MIC90 for Aspergillus spp.; assay type: functional
# [50] = Cmin in lung transplant recipient plasma at 400 mg, po every 12 hrs after 12 hrs by LC/MS analysis; assay type: ADME, organism-based; settings: human, read-out: Cmin
# [51] = Ratio of AUC (0 to 12 hrs) in lung transplant recipient plasma to MIC90 for Aspergillus spp.; assay type: functional
# [52] = Drug level in lung transplant recipient epithelial lining fluid at 400 mg, po every 12 hrs after 24 hrs by LS/MS analysis; assay type: ADME, organism-based; settings: human, read-out: Drug uptake
# [53] = test system: Plasma; assay: AUC (0 to 12 hrs) in lung transplant recipient plasma at 400 mg, po every 12 hrs by LC/MS analysis; assay type: ADME, organism-based; parameters: dose 400 mg, time < 12 hr, route oral; settings: human, in vivo
# [54] = T>MIC90 for Aspergillus spp. infected lung transplant recipient alveolar cell at 400 mg, po every 12 hrs by LS/MS analysis; assay type: functional, Pneumocyte
# [55] = Ratio of fCmax in lung transplant recipient plasma after 12 hrs to MIC90 for Aspergillus spp.; assay type: functional
compound,measurement,setting,value
CC[C@@H]([C@H](C)O)n1ncn(-c2ccc(N3CCN(c4ccc(OC[C@@H]5CO[C@@](Cn6cncn6)(c6ccc(F)cc6F)C5)cc4)CC3)cc2)c1=O [POSACONAZOLE],Ratio,[1],110.8
same,Ratio,[2],2.5
same,AUC,[3],1060 µg/h/mL
same,Ratio,[4],27.3
same,Kp at 12 h,[5],1
same,concentration at 12 h,[6],31300 ng/mL
same,Ratio,[7],56.4
same,concentration at 12 h,[8],36800 ng/mL
same,AUC,[9],22.42 µg/h/mL
same,Tmax,[10],2.8 h
same,concentration at 3 h,[11],1300 ng/mL
same,AUC,[12],11.21 µg/h/mL
same,concentration at 3 h,[13],55400 ng/mL
same,Kp at 8 h,[14],0.9
same,Ratio,[15],2.6
same,concentration at 12 h,[16],930 ng/mL
same,Ratio,[17],0.33
same,concentration at 5 h,[18],1100 ng/mL
same,Ratio,[19],53.3
same,Kp at 24 h,[20],0.68
same,Cmax,[21],1300 ng/mL
same,concentration at 24 h,[22],49600 ng/mL
same,Ratio,[23],2324
same,Kp at 5 h,[24],0.57
same,T>MIC90,[25],24 h
same,Cmax,[26],55400 ng/mL
same,concentration at 8 h,[27],1000 ng/mL
same,Tmax,[28],5.3 h
same,Kp at 3 h,[29],0.94
same,concentration at 8 h,[30],810 ng/mL
same,Ratio,[31],39.9
same,concentration at 12 h,[32],1200 ng/mL
same,fraction unbound,[33],< 0.02
same,Cmax,[34],1300 ng/mL
same,concentration at 5 h,[35],1300 ng/mL
same,Ratio,[36],63.6
same,AUC,[37],530.2 µg/h/mL
same,Ratio,[38],0.6
same,AUC,[39],21.98 µg/h/mL
same,Tmax,[40],3.2 h
same,Ratio,[41],40.7
same,Ratio,[42],1162
same,concentration at 8 h,[43],54700 ng/mL
same,T>MIC90,[44],24 h
same,concentration at 5 h,[45],31300 ng/mL
same,concentration at 3 h,[46],1100 ng/mL
same,concentration at 24 h,[47],740 ng/mL
same,Ratio,[48],36.84
same,Ratio,[49],18.42
same,concentration at 12 h,[50],810 ng/mL
same,Ratio,[51],19.95
same,concentration at 24 h,[52],500 ng/mL
same,AUC,[53],10.99 µg/h/mL
same,T>MIC90,[54],24 h
same,Ratio,[55],0.04
